According to US5045566A, “Novel imidate insecticides” (ICI Americas Inc., priority 1989, dated 1991):

Key:
Assay type in all cases: in vivo
[1] = test system: Aster Leafhopper [Macrosteles fascifrens (Stal)]; test: Aster leafhopper on dipped oat seedlings (LH), 48 hours; settings: percent in solution, adults/nymphs
How it was run: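 Three ~10 cm oat seedlings per cup were dipped 2-3 seconds in 50-50 acetone-water compound solutions, dried, and caged with ten adult/nymph leafhoppers. Mortality was counted after 48 hours at concentrations from 0.05% downward. LC50, as percent compound in solution, came from dosage-mortality curves.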

[2] = test system: Maize weevil [Sitophilus zeamais (Motschulsky)]; test: Maize weevil on dipped corn seeds (MW), 48 hours; settings: percent in solution, adult weevils
How it was run: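 LC50, given as percent of compound in dipping solution, comes from dosage-mortality curves over concentrations descending from 0.01%. Four corn seeds soaked 2-3 s in 50:50 acetone:water solution were dried and held with 10 adult weevils, about 25° C, mortality read after 48 h.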

[3] = test system: Housefly [Musca domestica]; test: Housefly contact mortality in dishes (HF), 48 hours; settings: μg of test compound per 25 female flies
How it was run: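 Dose range started at 100 μg per 25 female flies and went downward. Insects (1-2 days old) contacted a dried acetone/peanut-oil deposit in dishes; LC50 values come from dosage-mortality curves at 48 h.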

[4] = test system: Rice water weevil [Lissorhoptrus oryzophilus (Kuschel)]; test: Rice water weevil topical (RWW), 48 hours; settings: μg of test compound per weevil, female adults
Protocol: The compounds in Tables 1 and 2 above were tested for insecticidal activity using the following testing procedures. LC50 values, based on the results of these tests and calculated according to dosage-mortality curves, are expressed in Table 3.
Rice water weevil [Lissorhoptrus oryzophilus (Kuschel)]:
Test compounds were diluted in acetone. Droplets (1 ul) of test solutions were applied to the ventral abdomens of ten female adult weevils. The treated weevils were placed in containers with wet cotton balls and rice foliage. The containers were covered and kept at a temperature of about 25° C. Mortality was recorded after 48 hours. Test concentrations ranged from […] down to that at which 50% mortality occurred. The LC50 values are expressed below in Table 3 under the heading "RWW" in terms of μg of test compound per weevil.

[5] = test system: Cabbage Looper [Trichoplusia ni (Hubner)]; test: Cabbage looper leaf dip (CL), 3-5 days; settings: percent in solution, second-instar larvae
How it was run: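 Squash cotyledons dipped in test solution (acetone-water 50-50, ≤0.1%), dried, offered to 5 second-instar larvae; mortality after 3-5 days gives LC50.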

[6] = test system: Tobacco Budworm [Heliothis virescens (Fabricius)] eggs; test: Tobacco budworm eggs (TBW-E); settings: percent in solution; 2-day old eggs
How it was run: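 Step 1: dip 2-day old egg patches in acetone test solutions (top concentration 0.1%). Step 2: hold in dishes with rearing medium at 78° F. Step 3: record mortality after control hatch and feeding.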

[7] = test system: Black Bean Aphid [Aphis fabae (Scop.)]; test: Black bean aphid spray test on nasturtium (BBA), 48 hours; settings: percent of test compound in sprayed solution
How it was run: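 LC50, given as percent test compound in the sprayed liquid, was calculated from dosage-mortality curves using concentrations from 0.05% downward. Sprays in 50:50 acetone-water went to runoff on ~5 cm nasturtiums carrying 25-50 aphids of mixed ages, one day after infestation. Deaths were counted 48 h later under greenhouse conditions.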

[8] = test system: Tobacco Budworm [Heliothis virescens (Fabricius)] larvae; test: Tobacco budworm larvae, contact (TBW-C), 5 days; settings: percent in solution, second-instar larvae
How it was run: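 Cotton cotyledons dipped 2–3 s in compound in 50-50 acetone-water, dried, then infested with 5 second-instar larvae and held 5 days at high humidity. Mortality scored; LC50 from dosage-mortality curves, expressed as percent compound in solution, concentrations from 0.1% downward.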

Compound	LC50 LH [1]	LC50 MW [2]	LC50 HF [3]	LC50 RWW [4]	LC50 CL [5]	LC50 TBW E (eggs) [6]	LC50 BBA [7]	LC50 TBW C (contact) [8]
CC(C)C(=Nc1ccc(C(F)(F)F)cc1)OCc1cccc(Oc2ccccc2)c1 [Compound 68]	0.0001%	> 0.01%	37 µg	0.15 µg	0.006%	0.009%	0.0003%	–
CCC(=Nc1ccc(F)c(Cl)c1)OCc1cccc(Oc2ccccc2)c1 [Compound 85]	0.003%	> 0.01%	7 µg	> 2.5 µg	0.004%	> 0.1%	0.0017%	–
CC(C)C(=Nc1ccc(F)c(Cl)c1)OCc1cccc(Oc2cccc(F)c2)c1 [Compound 125]	> 0.05%	> 0.01%	12 µg	> 2.5 µg	0.0007%	0.025%	0.05%	–
CC(C)C(=Nc1ccc(F)c(Cl)c1)OCc1cccc(Oc2ccc(F)cc2F)c1 [Compound 191]	> 0.05%	0.004%	29 µg	> 2.5 µg	0.00023%	0.04%	0.001%	–
CC(C)C(=Nc1c(F)c(F)c(F)c(F)c1F)OCc1cccc(Oc2ccc(F)cc2)c1 [Compound 198]	0.05%	0.003%	52 µg	> 2.5 µg	0.0005%	> 0.1%	–	–
CC(C)C(=Nc1ccc(F)c(Cl)c1)OCc1cc(Oc2ccc(F)cc2)ccc1F [Compound 230]	–	0.038%	36 µg	> 2.5 µg	0.0004%	0.1%	0.01%	–
CC(C)C(=Nc1ccc(F)c(Cl)c1)OCc1cccc(Oc2ccc(F)cc2)c1F [Compound 262]	–	0.005%	26 µg	> 2.5 µg	0.0004%	> 0.1%	0.03%	–
CC(C)C(=Nc1ccc(Cl)c(Cl)c1)OCc1ccc(F)c(Oc2ccc(F)cc2)c1 [Compound 289]	0.0003%	> 0.01%	10 µg	0.082 µg	0.00007%	0.006%	0.0003%	–
CC(C)C(=Nc1ccc(Cl)c(Cl)c1)OCc1ccc(F)c(Oc2ccc(Cl)cc2)c1 [Compound 296]	0.0003%	–	38 µg	0.14 µg	0.00025%	0.025%	0.0003%	0.00045%
CC(C)C(=Nc1ccc(F)c(Br)c1)OCc1ccc(F)c(Oc2ccc(Cl)cc2)c1 [Compound 298]	0.0001%	0.008%	13 µg	> 2.5 µg	0.0001%	0.015%	–	0.0008%
CC(C)(F)C(=Nc1ccc(F)c(Cl)c1)OCc1ccc(F)c(Oc2ccc(F)cc2)c1 [Compound 310]	–	–	4.5 µg	> 2.5 µg	0.00006%	0.015%	0.0006%	–
CC(C)C(=Nc1ccc(OC(F)(F)F)cc1)OCc1ccc(F)c(Oc2ccccc2)c1 [Compound 338]	–	0.0053%	26 µg	0.044 µg	0.000065%	0.01%	0.0003%	0.00037%
CCOc1ccc(N=C(OCc2ccc(F)c(Oc3ccc(Cl)cc3)c2)C(C)C)cc1Cl [Compound 369]	–	> 0.01%	> 100 µg	> 2.5 µg	0.0016%	> 0.1%	0.0003%	–
CCOc1ccc(N=C(OCc2ccc(F)c(Oc3ccccc3)c2)C(C)C)cc1Cl [Compound 370]	–	> 0.01%	< 100 µg	> 2.5 µg	0.00034%	0.02%	0.0002%	–
CC(C)C(=Nc1cccc(F)c1)OCc1ccc(F)c(Oc2ccc(Cl)cc2)c1 [Compound 375]	–	> 0.01%	7.9 µg	> 2.5 µg	> 0.1%	0.04%	0.0006%	–
CC(C)C(=Nc1ccc(Cl)c(Cl)c1)OCc1ccc(F)c(Oc2ccccc2)c1 [Compound 376]	–	0.0061%	17 µg	0.1 µg	0.00037%	0.02%	0.0003%	–
CC(C)C(=Nc1ccc(C(F)(F)F)c(Br)c1)OCc1ccc(F)c(Oc2ccc(Cl)cc2)c1 [Compound 377]	–	> 0.01%	< 100 µg	> 2.5 µg	0.00062%	> 0.1%	0.001%	–
CC(C)C(=Nc1ccc(Br)cc1)OCc1ccc(F)c(Oc2ccc(Cl)cc2)c1 [Compound 378]	–	> 0.01%	< 100 µg	> 2.5 µg	0.00034%	0.02%	0.0008%	–
CC(C)C(=Nc1ccc(Br)c(Cl)c1)OCc1cccc(Oc2ccc(Cl)cc2)c1 [Compound 380]	–	> 0.01%	> 100 µg	> 2.5 µg	> 0.1%	> 0.1%	0.004%	–
CC(C)C(=Nc1ccc(Br)c(Cl)c1)OCc1ccc(F)c(Oc2ccc(Cl)cc2)c1 [Compound 381]	–	> 0.01%	< 100 µg	> 2.5 µg	0.00092%	0.018%	0.002%	–
CC(C)C(=Nc1ccc(Br)c(Cl)c1)OCc1ccc(F)c(Oc2ccc(F)cc2)c1 [Compound 382]	–	> 0.01%	< 100 µg	> 2.5 µg	0.00029%	0.027%	0.0003%	–
CC(C)C(=Nc1cccc(Br)c1)OCc1ccc(F)c(Oc2ccccc2)c1 [Compound 387]	–	> 0.01%	< 100 µg	> 2.5 µg	0.0012%	0.05%	0.0006%	–
CC(C)C(=Nc1ccc(Cl)cc1)OCc1ccc(F)c(Oc2ccc(Cl)cc2)c1 [Compound 391]	–	> 0.01%	< 100 µg	> 2.5 µg	0.00029%	0.035%	0.0006%	–
C=C(C)C(=Nc1ccc(C(F)(F)F)cc1)OCc1ccc(F)c(Oc2ccccc2)c1 [Compound 431]	–	0.0037%	9.8 µg	0.084 µg	0.00017%	0.025%	0.0003%	–
CC(C)C(=Nc1ccc(C(F)(F)F)c(Br)c1)OCc1ccc(F)c(Oc2ccc(Cl)cc2)c1 [Compound 433]	–	0.005%	< 100 µg	0.078 µg	0.00017%	0.02%	0.0003%	–
CC(C)C(=Nc1ccc(Cl)c(OCC(F)(F)F)c1)OCc1ccc(F)c(Oc2ccc(Cl)cc2)c1 [Compound 452]	–	> 0.01%	> 100 µg	0.1 µg	0.0017%	< 0.1%	0.0003%	–
